Structures can show the parent of a compound that is named as a salt.
Key:
[1] = molecular target: T1, PTP1B (Homo sapiens, UniProt P18031); assay: PTP Enzyme Assay (DiFMUP), PTP1B; format: biochemical; settings: 5 μM DiFMUP substrate; catalytic core of human recombinant PTP; triplicates; read-out: IC50 value in respect of PTP1B
T1 construct: using the catalytic core of a human recombinant PTP as the enzyme; made in house
T1 sequence (P18031 3-277 limits assumed): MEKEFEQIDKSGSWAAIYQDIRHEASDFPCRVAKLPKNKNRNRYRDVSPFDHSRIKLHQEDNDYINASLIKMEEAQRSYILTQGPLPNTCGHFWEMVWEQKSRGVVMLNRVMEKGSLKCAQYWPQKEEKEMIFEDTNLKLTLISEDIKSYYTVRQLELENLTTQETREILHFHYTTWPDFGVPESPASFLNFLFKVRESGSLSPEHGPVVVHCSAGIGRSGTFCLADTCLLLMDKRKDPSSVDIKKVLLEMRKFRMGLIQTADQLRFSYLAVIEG
Method: (§1) The PTP Enzyme Assay aims at determining the extent of inhibition of PTPs, e.g. of PTP1B, SHP-1, SHP-2, GLEPP-1 or PTP-H1 in the presence of a test compound of formula (I) or (I′). The inhibition is illustrated by IC50 values which denote the concentration of test compound necessary to achieve an inhibition of 50% of said PTP's using the following concentration of the PTP substrate DiFMUP: • 5 μM DiFMUP for PTP1B and PTP-H1; • 20 μM DiFMUP for SHP-1 and SHP-2. • 30 μM DiFMUP for GLEPP-1. a) PTPs Cloning
The cloning and expression of the catalytic domain e.g. of PTP1B, may be performed as described in J. Biol. Chem. 2000, 275(13), pp 9792-9796.
(§2) The DiFMUP assay allows to follow the dephosphorylation of DiFMUP (6,8-DiFluoro-4-MethylUmbelliferyl Phosphate)—which is the PTP substrate—mediated by PTP into its stable hydrolysis product, i.e. DiFMU (6,8-difluoro-7-hydroxy coumarin). Due to its rather low pKa and its high quantum yield, DiFMU allows to measure both acidic and alkaline phosphatase activities with a great sensitivity.
(§3) Assays were performed in a 96 well plate format, using the catalytic core of a human recombinant PTP as the enzyme and 6,8-DiFluoro-4-MethylUmbelliferyl Phosphate (DiFMUP, Molecular Probes, D-6567) as a substrate. Compounds to be tested were dissolved in 100% DMSO at a concentration of 2 mM. Subsequent dilutions of the test compounds (to yield a concentration of 100, 30, 10, 3, 1, 0.3, 0.1, 0.03, 0.01, 0.001 μM) wore performed in 60% DMSO manually. 8 μl of diluted compound or vehicle (60% DMSO=control) was distributed to a black Costar 96 well plate. 42 μl of human recombinant PTP enzyme diluted in assay buffer (20 mM Tris HCl pH 7.5, 0.01% IGEPAL CA-630, 0.1 mM ethylenediaminetetracetic acid, 1 mM DL-Dithiothreitol) can be added to the dilutions of compound or vehicle (distributed to a black Costar 96 well plate), followed by 50 μl of DiFMUP diluted in the assay buffer. The reaction ran for 30 minutes at room temperature before reading the fluorescence intensity (integral or intensity) on a Perkin-Elmer Victor 2 spectrofluorimeter (excitation of 6,8-difluoro-7-hydroxy coumarin is at 355 nm, the emission at 460 nm, for 0.1 s). The percentage of inhibition is determined by measuring the relative fluorescence ion absence of a test compound (PTP inhibitor), i.e. with the solvent alone (5% DMSO). The IC50 values for inhibition were determined in triplicates.

[2] = molecular target: T2, GLEPP-1 (Homo sapiens, UniProt Q16827); assay: PTP Enzyme Assay (DiFMUP), GLEPP-1; format: biochemical; settings: 30 μM DiFMUP substrate; catalytic core of human recombinant PTP; triplicates; read-out: IC50 value in respect of GLEPP-1
T2 construct: using the catalytic core of a human recombinant PTP as the enzyme
T2 sequence (Q16827 938-1195 limits assumed): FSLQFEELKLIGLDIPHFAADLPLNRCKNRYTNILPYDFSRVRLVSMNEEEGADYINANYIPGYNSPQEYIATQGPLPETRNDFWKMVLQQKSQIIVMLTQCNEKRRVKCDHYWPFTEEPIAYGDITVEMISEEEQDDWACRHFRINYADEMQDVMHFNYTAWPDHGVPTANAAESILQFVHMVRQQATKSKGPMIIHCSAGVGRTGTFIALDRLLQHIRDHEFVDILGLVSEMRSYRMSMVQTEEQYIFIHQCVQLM
Method: as §1, §2, §3

[3] = molecular target: T3, SHP-1 (Homo sapiens, UniProt P29350); assay: PTP Enzyme Assay (DiFMUP), SHP-1; format: biochemical; settings: 20 μM DiFMUP substrate; catalytic core of human recombinant PTP; triplicates; read-out: IC50 value in respect of SHP-1
T3 construct: using the catalytic core of a human recombinant PTP as the enzyme
T3 sequence (P29350 244-515 limits assumed): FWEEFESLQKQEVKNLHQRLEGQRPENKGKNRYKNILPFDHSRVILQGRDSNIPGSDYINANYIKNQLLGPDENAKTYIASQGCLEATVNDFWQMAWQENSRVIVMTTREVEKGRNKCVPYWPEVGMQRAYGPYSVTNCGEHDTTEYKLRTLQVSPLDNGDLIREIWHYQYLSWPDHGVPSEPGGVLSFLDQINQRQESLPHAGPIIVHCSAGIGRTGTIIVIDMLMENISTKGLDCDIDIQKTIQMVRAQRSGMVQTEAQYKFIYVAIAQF
Method: as §1, §2, §3

[4] = molecular target: T4, SHP-2 (Homo sapiens, UniProt Q06124); assay: PTP Enzyme Assay (DiFMUP), SHP-2; format: biochemical; settings: 20 μM DiFMUP substrate; catalytic core of human recombinant PTP; triplicates; read-out: IC50 value in respect of SHP-2
T4 construct: using the catalytic core of a human recombinant PTP as the enzyme
T4 sequence (Q06124 247-517 limits assumed): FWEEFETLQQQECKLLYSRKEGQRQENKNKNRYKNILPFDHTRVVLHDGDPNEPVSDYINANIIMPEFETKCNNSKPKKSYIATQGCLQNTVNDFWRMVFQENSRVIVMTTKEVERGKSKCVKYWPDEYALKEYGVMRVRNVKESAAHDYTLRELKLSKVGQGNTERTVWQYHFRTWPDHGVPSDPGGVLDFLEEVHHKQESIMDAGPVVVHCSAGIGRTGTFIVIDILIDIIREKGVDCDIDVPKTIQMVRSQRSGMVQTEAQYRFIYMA
Method: as §1, §2, §3

[5] = molecular target: T5, PTP-H1 (Homo sapiens, UniProt P26045); assay: PTP Enzyme Assay (DiFMUP), PTP-H1; format: biochemical; settings: 5 μM DiFMUP substrate; catalytic core of human recombinant PTP; triplicates; read-out: IC50 value in respect of PTP-H1
T5 construct: using the catalytic core of a human recombinant PTP as the enzyme
T5 sequence (P26045 646-901 limits assumed): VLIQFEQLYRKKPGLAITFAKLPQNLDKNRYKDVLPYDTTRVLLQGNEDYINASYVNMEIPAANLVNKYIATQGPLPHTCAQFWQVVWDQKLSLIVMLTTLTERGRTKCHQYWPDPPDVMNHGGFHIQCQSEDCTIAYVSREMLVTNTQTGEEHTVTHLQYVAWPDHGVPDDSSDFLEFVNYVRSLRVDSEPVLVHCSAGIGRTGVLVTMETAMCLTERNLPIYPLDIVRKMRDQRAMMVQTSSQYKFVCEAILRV
Method: as §1, §2, §3

[6] = system: db/db mice; assay: In vivo assay in db/db mice (postprandial glycemia); settings: 4 hrs after drug administration, expressed as a percentage of control (vehicle, Group 1)
Method: The following assay aims at determining the anti-diabetic effect of the test compounds of formula (I) or (I′) in a model of postprandial glycemia in db/db mice, in vivo.
A total of 18 db/db mice (about 8-9 weeks; obtained from IFFACREDO, l'Arbreste, France) were fasted during 20 hours.
3 groups, each consisting of 6 animals were formed: • Group 1: The animals were administered (per os) a dose of 10 mL/kg of vehicle (control). • Group 2: The animals were administered (per os) a dose of 30 mg/kg of the test compound according to formula (I) solubilized in the vehicle. • Group 3: The animals were administered (per os) a dose of 100 mg/kg of the test compound according to formula (I) solubilized in the vehicle.
After oral administration of the compounds of formula (I) or (I′) solubilized or suspended in CarboxyMethylCellulose (0.5%), Tween 20 (0.25%) in water as vehicle, the animals had access to commercial food (D04, UAR, Villemoisson/Orge, France) ad libitum. The diabetic state of the mice was verified by determining the blood glucose level before fasting. Blood glucose and serum insulin levels were then determined 4 hrs after drug administration.
The determination of the blood glucose level was performed using a glucometer (Ascensia Dex^2, Bayer, ref 3956C).
The determination of the Insulin level was performed using an ELISA kit (Mercodia, ref 10-1149-10).
Changes in blood glucose and serum insulin of drug treated mice were expressed as a percentage of control (group 1: vehicle treated mice).

| SMILES | IC50 [1] [µM] | IC50 [2] [µM] | IC50 [3] [µM] | IC50 [4] [µM] | IC50 [5] [µM] | Decrease in blood glucose ([6]; Group 2: 30 mg/kg per os) [%] | Decrease in serum insulin ([6]; Group 2: 30 mg/kg per os) [%] | Decrease in blood glucose ([6]; Group 3: 100 mg/kg per os) [%] | Decrease in serum insulin ([6]; Group 3: 100 mg/kg per os) [%] |
| --- | --- | --- | --- | --- | --- | --- | --- | --- | --- |
| CCCCCCCCC#Cc1ccc(CN(C(=O)CCC2CCCC2)c2ccc(O)c(C(=O)O)c2)cc1 [Example 2, 5-[(3-cyclopentylpropanoyl)(4-dec-1-ynylbenzyl)amino]-2-hydroxybenzoic acid. N-methyl-D-glucamine (i.e. 1-deoxy-1-(methylamino)glucitol) salt] | 0.49 | 0.61 | 1.2 | 0.49 | 3.37 | 28 | 84 | 58 | 88 |
| CCCCCCCCC#Cc1ccc(CN(Cc2ccc(OCC(=O)O)c(C(=O)O)c2)C(=O)/C=C/c2ccccc2)cc1 [Example 16, 2-(carboxymethoxy)-5-({(4-dec-1-ynylbenzyl)[(2E)-3-3-phenylprop-2-enoyl]amino}methyl)benzoic acid] | 0.29 | 0.21 | 1.6 | 1.4 | 5.7 | – | – | – | – |
| CCCCc1ccc(C#Cc2ccc(CN(C(=O)Cc3cccs3)c3ccc(F)c(C(=O)O)c3)cc2)cc1 [Example 68, 5-[{4-[(4-butylphenyl)ethynyl]benzyl}(2-thienylacetyl)amino]-2-fluorobenzoic acid, N-methyl-D-glucamine (i.e. 1-deoxy-1-(methylamino)glucitol) salt] | 0.49 | 1.58 | 3.7 | 1.9 | 9.9 | – | – | – | – |
| CCCCc1ccc(C#Cc2ccc(CN(C(=O)C(C)(C)C)c3ccc(C(=O)O)c(O)c3)cc2)cc1 [Example 76, 4-[{4-[(4-butylphenyl)ethynyl]benzyl}(2,2-dimethylpropanoyl)amino]-2-hydroxybenzoic acid, N-methyl-D-glucamine (i.e. 1-deoxy-1-(methylamino)glucitol) salt] | 0.97 | 0.99 | 3 | 2.2 | 6.3 | – | – | – | – |
